Test results reported in patent US7838534B2, “Quinuclidine derivatives as M3 antagonists” (Chiesi Farmaceutici S.p.A., priority 2006, dated 2010).

Test: lung retention after intratracheal administration (lung homogenate, plasma)
Type: in vivo
Details: guinea pig lung; for C48L/C0.5L (amount in the lung 48 hours vs 0.5 hours after administration): intratracheal administration
Text: MRTL and […]/C0.5L (%) are two meaningful and predictive parameters of the duration of a drug's effect after single dose pulmonary administration.

Row | MRT (lung homogenate, inhaled or intranasal, intratracheal 10 nmol/kg, read-out: MRTL (Mean Residence Time in the Lung)) | SMILES | C48L/C0.5L (amount in the lung 48 hours vs 0.5 hours after administration)
1 | – | CC(C)[N+]1(C)[C@@H]2CC[C@H]1CC(OC(=O)C(CO)c1ccccc1)C2.[Br-] (stereo partly drawn) [ipratropium bromide] | 0.3%
2 | 7.1 h | C[N+]1(C)[C@@H]2C[C@@H](OC(=O)C(O)(c3cccs3)c3cccs3)C[C@H]1[C@@H]1O[C@@H]12 [tiotropium bromide] | 2.3%
